Data: patent US9663512B2, “Bicyclic heterocycle compounds and their uses in therapy” (ASTEX THERAPEUTICS LIMITED, priority 2012, dated 2017)
Structures can show the parent of a compound that is named as a salt. Where two headings read alike, the source gives them in different places.

Legend:
[1] = test system: EVSA-T (human breast carcinoma); test: Anti-proliferative activity, Alamar Blue assay, EVSA-T; format: cell-based; conditions: EVSA-T cell line, read-out: EVSA-T prolif (EC50)
[2] = molecular target: T1, BIR3 domain of human XIAP (Homo sapiens, UniProt P98170); test: XIAP in vitro competitive displacement binding assay (fluorescence polarization); conditions: for IC50: XIAP BIR3 fluorescence polarization displacement, average (e.g. geometric mean), read-out: Xiap IC50 or PI (IC50); for inhibition at […]: at 0.12 μM; for inhibition at […] / inhibition at 0.04 µM: read-out: Xiap IC50 or PI (percent inhibition)
T1 construct: BIR3 domain of human XIAP (residues 252-350) fused to a His-tag; His-tag (cleaved yes); made in house; host or cells: Escherichia coli
T1 sequence (P98170 252-350): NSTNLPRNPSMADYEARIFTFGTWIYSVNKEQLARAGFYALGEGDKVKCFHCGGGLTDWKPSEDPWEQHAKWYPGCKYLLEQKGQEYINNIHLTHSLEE

[3] = molecular target: T2, BIR3 domain of human cIAP-1 (Homo sapiens, UniProt Q13490); test: cIAP-1 in vitro competitive displacement binding assay (fluorescence polarization); conditions: at 0.012 μM; read-out: cIAP1 IC50 or PI (percent inhibition)
T2 construct: human cIAP-1 (residues 267-363) fused to a GST-tag; GST-tag (cleaved yes); made in house; host or cells: Escherichia coli
T2 sequence (Q13490 267-363): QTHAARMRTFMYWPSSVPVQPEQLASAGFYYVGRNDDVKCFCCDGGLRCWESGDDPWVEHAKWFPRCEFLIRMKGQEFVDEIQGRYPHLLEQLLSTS

| SMILES | EC50 ([1]; 72 hours) [nM] | inhibition at […] [3] [%] | inhibition at 0.04 µM [2] [%] | also measured |
| --- | --- | --- | --- | --- |
| Cc1cn(C[C@H]2CN[C@H](C)CN2CC(=O)N2CC(C)(C)c3ncc(Cc4ccc(F)cc4)cc32)cn1 (single isomer, unassigned) [Example 13, dihydrochloride] | 9.9 | – | – | – |
| Cc1cncn1C[C@H]1CN[C@H](C)CN1CC(=O)N1CC(C)(C)c2ncc(Cc3ccc(F)cc3)cc21 (single isomer, unassigned) [Example 14, dihydrochloride] | 5.9 | – | – | – |
| Cc1cnn(C[C@H]2CN[C@H](C)CN2CC(=O)N2CC(C)(C)c3ncc(Cc4ccc(F)cc4)cc32)c1C (single isomer, unassigned) [Example 20, dihydrochloride] | < 1000 | – | – | EC50 ([1]; EVSA-T, 72 h): 2.1 nM |
| Cc1cc(C)n(C[C@H]2CN[C@H](C)CN2CC(=O)N2CC(C)(C)c3ncc(Cc4ccc(F)cc4)cc32)n1 [Example 1, 2-[(2R,5R)-2-[(3,5-Dimethyl-1H-pyrazol-1-yl)methyl]-5-methylpiperazin-1-yl]-1-{6-[(4-fluorophenyl)methyl]-3,3-dimethyl-1H,2H,3H-pyrrolo[3,2-b]pyridin-1-yl}ethan-1-one, dihydrochloride] | – | – | – | IC50 [2]: 91 nM |
| Cc1nccn1C[C@H]1CN[C@H](C)CN1CC(=O)N1CC(C)(C)c2ncc(Cc3ccc(F)cc3)cc21 [Example 2, 1-{6-[(4-Fluorophenyl)methyl]-3,3-dimethyl-1H,2H,3H-pyrrolo[3,2-b]pyridin-1-yl}-2-[(2R,5R)-5-methyl-2-[(2-methyl-1H-imidazol-1-yl)methyl]piperazin-1-yl]ethan-1-one, dihydrochloride] | – | 100 | – | inhibition at […] [2]: 65% |
| Cc1ncn(C[C@H]2CN[C@H](C)CN2CC(=O)N2CC(C)(C)c3ncc(Cc4ccc(F)cc4)cc32)c1C [Example 3, 2-[(2R,5R)-2-[(4,5-Dimethyl-1H-imidazol-1-yl)methyl]-5-methylpiperazin-1-yl]-1-{6-[(4-fluorophenyl)methyl]-3,3-dimethyl-1H,2H,3H-pyrrolo[3,2-b]pyridin-1-yl}ethan-1-one, dihydrochloride] | – | 99 | 34 | – |
| CCc1nccn1C[C@H]1CN[C@H](C)CN1CC(=O)N1CC(C)(C)c2ncc(Cc3ccc(F)cc3)cc21 [Example 4, 2-[(2R,5R)-2-[(2-Ethyl-1H-imidazol-1-yl)methyl]-5-methylpiperazin-1-yl]-1-{6-[(4-fluorophenyl)methyl]-3,3-dimethyl-1H,2H,3H-pyrrolo[3,2-b]pyridin-1-yl}ethan-1-one, dihydrochloride] | – | 96 | 35 | – |
| C[C@@H]1CN(CC(=O)N2CC(C)(C)c3ncc(Cc4ccc(F)cc4)cc32)[C@@H](Cn2ccnc2C(F)(F)F)CN1 [Example 5, 1-{6-[(4-Fluorophenyl)methyl]-3,3-dimethyl-1H,2H,3H-pyrrolo[3,2-b]pyridin-1-yl}-2-[(2R,5R)-5-methyl-2-{[2-(trifluoromethyl)-1H-imidazol-1-yl]methyl}piperazin-1-yl]ethan-1-one, dihydrochloride] | – | 96 | – | IC50 [2]: 110 nM |
| C[C@@H]1CN(CC(=O)N2CC(C)(C)c3ncc(Cc4ccc(F)cc4)cc32)[C@@H](Cn2ccnc2)CN1 [Example 6, 1-{6-[(4-Fluorophenyl)methyl]-3,3-dimethyl-1H,2H,3H-pyrrolo[3,2-b]pyridin-1-yl}-2-[(2R,5R)-2-(1H-imidazol-1-ylmethyl)-5-methylpiperazin-1-yl]ethan-1-one, dihydrochloride] | – | – | – | inhibition at […] [2]: 54% |
| Cc1cn(C[C@H]2CN[C@H](C)CN2CC(=O)N2CC(C)(C)c3ncc(Cc4ccc(F)cc4)cc32)c(C)n1 [Example 7, 2-[(2R,5R)-2-[(2,4-Dimethyl-1H-imidazol-1-yl)methyl]-5-methylpiperazin-1-yl]-1-{6-[(4-fluorophenyl)methyl]-3,3-dimethyl-1H,2H,3H-pyrrolo[3,2-b]pyridin-1-yl}ethan-1-one, dihydrochloride] | 2.9 | – | – | – |
| C[C@@H]1CN(CC(=O)N2CC(C)(C)c3ncc(Cc4ccc(F)cc4)cc32)[C@@H](Cn2ccnc2Cl)CN1 [Example 8, 2-[(2R,5R)-2-[(2-Chloro-1H-imidazol-1-yl)methyl]-5-methylpiperazin-1-yl]-1-{6-[(4-fluorophenyl)methyl]-3,3-dimethyl-1H,2H,3H-pyrrolo[3,2-b]pyridin-1-yl}ethan-1-one, dihydrochloride] | – | 100 | 36 | – |
| Cc1ccc(=O)n(C[C@H]2CN[C@H](C)CN2CC(=O)N2CC(C)(C)c3ncc(Cc4ccc(F)cc4)cc32)c1 [Example 9, 1-{[(2R,5R)-1-(2-{6-[(4-Fluorophenyl)methyl]-3,3-dimethyl-1H,2H,3H-pyrrolo[3,2-b]pyridin-1-yl}-2-oxoethyl)-5-methylpiperazin-2-yl]methyl}-5-methyl-1,2-dihydropyridin-2-one, dihydrochloride] | – | 92 | 35 | – |
| C[C@@H]1CN(CC(=O)N2CC(C)(C)c3ncc(Cc4ccc(F)cc4)cc32)[C@@H](Cn2ccnc2C#N)CN1 [Example 10, 1-{[(2R,5R)-1-(2-{6-[(4-Fluorophenyl)methyl]-3,3-dimethyl-1H,2H,3H-pyrrolo[3,2-b]pyridin-1-yl}-2-oxoethyl)-5-methylpiperazin-2-yl]methyl}-1H-imidazole-2-carbonitrile, L-lactate] | – | – | – | EC50 ([1]; EVSA-T, 72 h): 6.4 nM |
| Cc1nc(Cl)cn1C[C@H]1CN[C@H](C)CN1CC(=O)N1CC(C)(C)c2ncc(Cc3ccc(F)cc3)cc21 [Example 11, 2-[(2R,5R)-2-[(4-Chloro-2-methyl-1H-imidazol-1-yl)methyl]-5-methylpiperazin-1-yl]-1-{6-[(4-fluorophenyl)methyl]-3,3-dimethyl-1H,2H,3H-pyrrolo[3,2-b]pyridin-1-yl}ethan-1-one, dihydrochloride] | – | – | – | EC50 ([1]; EVSA-T, 72 h): 1.8 nM |
| Cc1cnnn1C[C@H]1CN[C@H](C)CN1CC(=O)N1CC(C)(C)c2ncc(Cc3ccc(F)cc3)cc21 [Example 15, 1-{6-[(4-Fluorophenyl)methyl]-3,3-dimethyl-1H,2H,3H-pyrrolo[3,2-b]pyridin-1-yl}-2-[(2R,5R)-5-methyl-2-[(5-methyl-1H-1,2,3-triazol-1-yl)methyl]piperazin-1-yl]ethan-1-one, dihydrochloride] | 9.4 | – | – | IC50 [2]: 220 nM |
| Cc1cn(C[C@H]2CN[C@H](C)CN2CC(=O)N2CC(C)(C)c3ncc(Cc4ccc(F)cc4)cc32)nn1 [Example 16, 1-{6-[(4-Fluorophenyl)methyl]-3,3-dimethyl-1H,2H,3H-pyrrolo[3,2-b]pyridin-1-yl}-2-[(2R,5R)-5-methyl-2-[(4-methyl-1H-1,2,3-triazol-1-yl)methyl]piperazin-1-yl]ethan-1-one, dihydrochloride] | 8.5 | – | – | – |
| Cc1ncnn1C[C@H]1CN[C@H](C)CN1CC(=O)N1CC(C)(C)c2ncc(Cc3ccc(F)cc3)cc21 [Example 21, 1-{6-[(4-Fluorophenyl)methyl]-3,3-dimethyl-1H,2H,3H-pyrrolo[3,2-b]pyridin-1-yl}-2-[(2R,5R)-5-methyl-2-[(5-methyl-1H-1,2,4-triazol-1-yl)methyl]piperazin-1-yl]ethan-1-one] | – | 95 | – | inhibition at […] [2]: 61% |
| Cc1cc(C[C@H]2CN[C@H](C)CN2CC(=O)N2CC(C)(C)c3ncc(Cc4ccc(F)cc4F)cc32)n(C)n1 [Example 22, 1-{6-[(2,4-Difluorophenyl)methyl]-3,3-dimethyl-1H,2H,3H-pyrrolo[3,2-b]pyridin-1-yl}-2-[(2S,5R)-2-[(1,3-dimethyl-1H-pyrazol-5-yl)methyl]-5-methylpiperazin-1-yl]ethan-1-one, dihydrochloride] | – | – | 47 | – |
| Cc1cn(C[C@H]2CN[C@H](C)CN2CC(=O)N2CC(C)(C)c3ncc(Cc4ccc(F)cc4)cc32)ccc1=O [Example 38, 1-{[(2R,5R)-1-(2-{6-[(4-Fluorophenyl)methyl]-3,3-dimethyl-1H,2H,3H-pyrrolo[3,2-b]pyridin-1-yl}-2-oxoethyl)-5-methylpiperazin-2-yl]methyl}-3-methyl-1,4-dihydropyridin-4-one, dihydrochloride] | – | 94 | 48 | – |
